# Values of other authors as cited in EP0602619A1, “Controlled-release pharmaceutical compositions containing nicergoline” (INVERNI DELLA BEFFA FARMACEUTICI S.r.l., priority 1992, dated 1994).
smiles,measurement,setting,value
"CO[C@]12C[C@@H](COC(=O)c3cncc(Br)c3)CN(C)[C@@H]1Cc1cn(C)c3cccc2c13 [Nicergoline, 8-β-1,6-dimethyl-[(5-bromonicotinoyloxy)methyl]-10α-methoxyergoline]",period of excretion of the administered dose,"humans, urine and feces",3 to 4 days
same,half-life,in vivo,very short
